Data reported in BindingDB's records for patent US9688678 (Abbvie Deutschland, 2017).

target: T1, Vasopressin V1b receptor (Homo sapiens, UniProt P47901); test: Binding Assay; conditions: pH 7.4; 25 °C
T1 sequence (P47901 whole entry): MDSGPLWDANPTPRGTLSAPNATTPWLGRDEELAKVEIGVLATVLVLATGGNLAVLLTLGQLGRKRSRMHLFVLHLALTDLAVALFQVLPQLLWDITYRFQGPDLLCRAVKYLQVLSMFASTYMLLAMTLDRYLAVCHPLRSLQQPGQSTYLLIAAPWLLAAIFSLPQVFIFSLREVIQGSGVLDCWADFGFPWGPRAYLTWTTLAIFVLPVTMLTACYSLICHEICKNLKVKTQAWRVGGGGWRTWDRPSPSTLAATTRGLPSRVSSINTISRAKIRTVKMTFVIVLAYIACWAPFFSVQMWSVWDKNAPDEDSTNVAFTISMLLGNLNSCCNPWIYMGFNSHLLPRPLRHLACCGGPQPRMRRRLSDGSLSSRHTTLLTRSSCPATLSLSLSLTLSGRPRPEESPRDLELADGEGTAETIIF
Description: The nonspecific binding was determined with 1 μM AVP (Fluka 94836). All determinations were carried out as duplicate determinations. […] The liquid scintillation measurement took place in a Microbeta TriLux 12 (Wallac).

Compound | Ki
COc1ccc(S(=O)(=O)N2C(=O)C(c3cc(OC)ccc3OC)(N3CC4(CN(C5CCN(C)CC5)C4)C3)C3C=C(C#N)C=CC32)nc1 (racemic) [US9688678, 21 (+-)-3-(2,5-dimethoxyphenyl)-1-[(5-methoxy-2-pyridyl)sulfonyl]-3-[2-(1-methyl-4-piperidyl)-2,6-diazaspiro[3.3]heptan-6-yl]-2-oxo-indoline-5-carbonitrile] | < 1 nM
CCOc1ccc(OC)cc1[C@]1(N2CC3(CN(C4CCN(C)CC4)C3)C2)C(=O)N(S(=O)(=O)c2cccc(OC)n2)C2C=CC(C#N)=CC21 (stereo partly drawn) [US9688678, 32 (3S)-3-(2-ethoxy-5-methoxy-phenyl)-1-[(6-methoxy-2-pyridyl)sulfonyl]-3-[2-(1-methyl-4-piperidyl)-2,6-diazaspiro[3.3]heptan-6-yl]-2-oxo-indoline-5-carbonitrile] | in the range around 55 nM
CCOc1ccc(OC)cc1C1(N2CC3(CN(N4CCN(C)CC4)C3)C2)C(=O)N(S(=O)(=O)c2ccc(OC)cn2)C2C=CC(C#N)=CC21 (single isomer, unassigned; (+)) [US9688678, 17B (+)-3-(2-ethoxy-5-methoxy-phenyl)-1-[(5-methoxy-2-pyridyl)sulfonyl]-3-[2-(4-methylpiperazin-1-yl)-6-azaspiro[3.3]heptan-6-yl]-2-oxo-indoline-5-carbonitrile] | < 1 nM
CCOc1ccc(OC)cc1[C@]1(N2CC3(CN(C4CCN(C)CC4)C3)C2)C(=O)N(S(=O)(=O)c2ccc(Cl)cn2)C2C=CC(C#N)=CC21 (stereo partly drawn) [US9688678, 34 (3S)-1-[(5-chloro-2-pyridyl)sulfonyl]-3-(2-ethoxy-5-methoxy-phenyl)-3-[2-(1-methyl-4-piperidyl)-2,6-diazaspiro[3.3]heptan-6-yl]-2-oxo-indoline-5-carbonitrile] | < 1 nM
CCOc1ccc(OC)c(C2(N3CC4(CN(C5CCN(C)CC5)C4)C3)C(=O)N(S(=O)(=O)c3cccc4cccnc34)C3C=CC(C#N)=CC32)c1 (racemic) [US9688678, 3 (+-)-3-(2-ethoxy-5-methoxy-phenyl)-3-[2-(1-methyl-4-piperidyl)-2,6-diazaspiro[3.3]heptan-6-yl]-2-oxo-1-(8-quinolylsulfonyl)indoline-5-carbonitrile] | in the range around 55 nM
CCOc1ccc(OC)cc1C1(N2CC3(CN(C4CCN(C)CC4)C3)C2)C(=O)N(S(=O)(=O)c2cc(C#N)ccn2)C2C=CC(C#N)=CC21 (racemic) [US9688678, 14 (+-)-1-(4-cyanophenyl)sulfonyl-3-(2-ethoxy-5-methoxy-phenyl)-3-[2-(1-methyl-4-piperidyl)-2,6-diazaspiro[3.3]heptan-6-yl]-2-oxo-indoline-5-carbonitrile] | in the range around 55 nM
CCOc1cnc(OCC)c(C2(N3CC4(CN(C5CCN(C)CC5)C4)C3)C(=O)N(S(=O)(=O)c3cc(OC)ccn3)C3C=CC(C#N)=CC32)c1 (stereo not drawn) [US9688678, 12 (+-)-3-(2-ethoxy-3-pyridyl)-1-(4-methoxyphenyl)sulfonyl-3-[2-(1-methyl-4-piperidyl)-2,6-diazaspiro[3.3]heptan-6-yl]-2-oxo-indoline-5-carbonitrile] | in the range around 55 nM
CCOc1ccc(OC)cc1C1(N2CC3(CN(C4CCN(C)CC4)C3)C2)C(=O)N(S(=O)(=O)c2ccc(OC)cn2)C2C=C(C#N)C=CC21 (stereo not drawn) [US9688678, 29 (+-)-3-(2-ethoxy-5-methoxy-phenyl)-1-[(5-methoxy-2-pyridyl)sulfonyl]-3-[2-(1-methyl-4-piperidyl)-2,6-diazaspiro[3.3]heptan-6-yl]-2-oxo-indoline-6-carbonitrile] | in the range around 5.5 nM
CCOc1ccc(OC)cc1C1(N2CC3(CN(C4CCN(C(C)C)CC4)C3)C2)C(=O)N(S(=O)(=O)c2ccc(OC)cn2)C2C=CC(C#N)=CC21 (racemic) [US9688678, 19 (+-)-3-(2-ethoxy-5-methoxy-phenyl)-3-[2-(1-isopropyl-4-piperidyl)-2,6-diazaspiro[3.3]heptan-6-yl]-1-[(5-methoxy-2-pyridyl)sulfonyl]-2-oxo-indoline-5-carbonitrile] | < 1 nM
CCOc1ccc(OC)cc1C1(N2CC3(CN(C4CCN(C)CC4)C3)C2)C(=O)N(S(=O)(=O)c2cc(F)ccn2)C2C=CC(C#N)=CC21 (racemic) [US9688678, 16 (+-)-3-(2-ethoxy-5-methoxy-phenyl)-1-(4-fluorophenyl)sulfonyl-3-[2-(1-methyl-4-piperidyl)-2,6-diazaspiro[3.3]heptan-6-yl]-2-oxo-indoline-5-carbonitrile] | in the range around 55 nM
CCOc1ccc(OC)c(C2(N3CC4(CN(C5CCN(C6COC6)CC5)C4)C3)C(=O)N(S(=O)(=O)c3ccc(OC)cn3)C3C=CC(C#N)=CC32)c1 (stereo not drawn) [US9688678, 11 (+)-3-(2-ethoxy-5-methoxyphenyl)-1-((5-methoxypyridin-2-yl)sulfonyl)-3-(6-(1-(oxetan-3-yl)piperidin-4-yl)-2,6-diazaspiro[3.3]heptan-2-yl)-2-oxoindoline-5-carbonitrile] | < 1 nM
COc1ccc(S(=O)(=O)N2C(=O)C(c3ccccc3OC)(N3CC4(CN(C5CCN(C)CC5)C4)C3)C3C=C(C#N)C=CC32)nc1 (stereo not drawn) [US9688678, 18 (+-)3-(2-methoxyphenyl)-1-[(5-methoxy-2-pyridyl)sulfonyl]-3-[2-(1-methyl-4-piperidyl)-2,6-diazaspiro[3.3]heptan-6-yl]-2-oxo-indoline-5-carbonitrile] | < 1 nM
COc1ccc(S(=O)(=O)N2C(=O)C(c3cccnc3OC)(N3CC4(CN(C5CCN(C)CC5)C4)C3)C3C=C(C#N)C=CC32)nc1 (stereo not drawn) [US9688678, 9A (+)-3-(2-ethoxy-3-pyridyl)-1-[(5-methoxy-2-pyridyl)sulfonyl]-3-[2-(1-methyl-4-piperidyl)-2,6-diazaspiro[3.3]heptan-6-yl]-2-oxo-indoline-5-carbonitrile] | < 1 nM
CCOc1ccc(OC)c(C2(N3CC4(CN(C5CCN(C)CC5)C4)C3)C(=O)N(S(=O)(=O)c3ccc(OC)cc3OC)C3C=CC(C#N)=CC32)c1 (racemic) [US9688678, 2 (+-)-1-(2,4-dimethoxyphenyl)sulfonyl-3-(2-ethoxy-5-methoxy-phenyl)-3-[2-(1-methyl-4-piperidyl)-2,6-diazaspiro[3.3]heptan-6-yl]-2-oxo-indoline-5-carbonitrile] | in the range around 55 nM
COc1ccc(S(=O)(=O)N2C(=O)C(c3ccccc3OC)(N3CC4(CN(C5CCN(C)CC5)C4)C3)C3C=C(C#N)C=CC32)nc1 (stereo not drawn) [US9688678, 18A (+)-3-(2-methoxyphenyl)-1-[(5-methoxy-2-pyridyl)sulfonyl]-3-[2-(1-methyl-4-piperidyl)-2,6-diazaspiro[3.3]heptan-6-yl]-2-oxo-indoline-5-carbonitrile] | < 1 nM
CCOc1ccc(OC)cc1C1(N2CC3(CN(N4CCN(C)CC4)C3)C2)C(=O)N(S(=O)(=O)c2ccc(OC)cn2)C2C=CC(C#N)=CC21 (racemic) [US9688678, 17 (+-)-3-(2-ethoxy-5-methoxy-phenyl)-1-[(5-methoxy-2-pyridyl)sulfonyl]-3-[2-(4-methylpiperazin-1-yl)-6-azaspiro[3.3]heptan-6-yl]-2-oxo-indoline-5-carbonitrile] | < 1 nM
